This passage reports IC50 results from patent US20250129021A1, “SMALL MOLECULE PROTEIN SYNTHESIS MODULATORS” (Interdict Bio, Inc., priority 2023, published 2025).

Common to all, as to assay type: biochemical
For one assay, the system named is CCNTB1. Briefly: In vitro transcription-translation (IVTT) assay, CCNTB1 reporter. As to conditions: HeLa S3 lysate, 2 hrs at 30° C. In outline: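 HeLa S3 lysate-based coupled transcription-translation reactions with reporter plasmids, compounds in half-log dilutions (30 μM−0.1 μM, in DMSO), 2 h at 30° C. sfGFP/mCherry ratio, corrected for no-DNA background, normalized to no-drug control and fitted for IC50.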

For a further assay, the system named is CCND1. Briefly: In vitro transcription-translation (IVTT) assay, CCND1 reporter. As to conditions: IVTT, HeLa S3 lysate, 2 hrs at 30° C. In outline: (§1)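 Reporter: mCherry, P2A, then 3×FLAG-target peptide-sfGFP fusion, IRES-initiated; HeLa S3 lysate IVTT; cpd dilutions 30 μM−0.1 μM half-log in 100% DMSO (dilution-plate conc); DNA added last; 2 h, 30° C; PBS quench.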

The next assay deals with MYC. Nature of the assay: In vitro transcription-translation (IVTT) assay, MYC reporter. As to conditions: IVTT assay, HeLa S3 lysate, MYC reporter, normalized sfGFP/mCherry ratio; half-log dilutions 30 μM-0.1 μM, 2 hrs at 30° C. In outline:
as §1

A further assay deals with CCNE1. Nature of the assay: In vitro transcription-translation (IVTT) assay, CCNE1 reporter. As to conditions: HeLa S3 lysate, 2 hrs at 30° C. On the procedure:
Each preparation takes 8 cell pellets (4 ml packed volume each, approximately 1.0×10^9 cells per pellet). Thaw cell pellets from −80° C. on ice for 90 mins. Lay pellets horizontally on top of the ice and rotate every 30 mins to ensure even thawing. Once thawed, add 4 mL of cold lysis buffer to each pellet, and using a serological pipet, gently pipet up and down to break up clumps. Incubate resuspended cells in ice for an additional 30 mins (plunged into ice). During 30 min incubation, rinse and RNase-zap (Ambion) glass dounces (use loose pestle “A”), gently dry and place on ice until needed. Prepare RNase-free Eppendorf tubes for spinning and for batch storage. Add batch labels to 1.5-1.7 mL RNase-free microcentrifuge tubes (labeling scheme below). Each batch will have an extra 1.5-1.7 mL RNase-free microcentrifuge tube for 40 μL of lysate, label the top of this tube (labeling scheme below). After 30 min incubation, transfer all 8 mL of cell pellet to dounce. Cell lysis is complete after douncing 100 times. Aliquot cell lysis into 1.5-1.7 mL temporary-microcentrifuge tubes. Place tubes in centrifuge with “fins” out, and spin at 1,200×g for 5 mins. After the first spin use a 1 mL pipet to resuspend each tube and repeat spin. This acts as an additional lysis step, is more vigorous and increases lysate yield. During second spin get liquid N2 and a fresh conical tube on ice. After spin is complete, transfer supernatant (lysate) from microcentrifuge tubes into the 50 mL conical tube and keep on ice. Repeat steps 10-14 for all other cell pellets until completed. Once all cell lysate has been transferred to the 50 mL conical tube pipet to mix so the solution is homogenous. Transfer 1 mL of lysate into batch-labeled microcentrifuge tubes and flash freeze in liquid nitrogen. Be sure to pipet up and down to mix throughout transfer step. Place all tubes in the […] for long-term storage.
In vitro transcription-translation assay setup: Each assay includes a master mix containing lysate and shared components, a 96-well plate containing compound titrations for testing, a 96-well DNA plate with reporter constructs to be tested, 96-well skirted PCR plates, and 96-well flat-bottom, black, fluorescent assay plates. Reaction materials setup: (A) Master mix—15 mL conical tube (3 mL of HeLa S3 Lysate described above; 0.6 mL of ThermoFisher Accessory Proteins (#88882); 1.2 ml of ThermoFisher Reaction Mix (#88882); 0.54 mL of nuclease-free Water); (B) 96-Well Master Mix+Compound Plate (Half-log dilutions (30 μM−0.1 μM) of 4 compounds of interest are prepared in 100% DMSO); 96-Well DNA Plate (Five DNA constructs are plated into single columns within the plate. Row 1 of the column contains nuclease free H2O, all other wells contain 110 ng/μL plasmid DNA). Reactions are started by mixing 155 μL of master mix and 3.5 μL of compound serial dilutions, then 9.1 μL of master mix+compound mixture is aliquoted across 5 96-well plates. Reactions begin with final addition of 2 μL of DNA for a 11.1 μL reaction volume in each well. The entire plate is sealed, and incubated for 2 hrs at 30° C. After 2 hrs, quench the assay using 45 μL of PBS, and transfer 50 μL to a flat-bottom black microplate Quantify the sfGFP and mCherry signals from each well on each plate, taking 3 reads of each plate, and perform data analysis below.
In vitro transcription-translation assay data analysis: Each plate is read three times in channels for both sfGFP and mCherry signals. The average signal across these 3 reads is then calculated for further analysis. Control wells containing no DNA reporter are subtracted from reporter wells in the same column to remove auto-fluorescence of the lysate. Then, the ratio of sfGFP/mCherry is calculated per well, and these ratios are averaged across the triplicate experiments on the same plate. Finally, the ratio of each titration concentration is normalized to the no drug control to create the normalized stalling metric. […]

Bounds are passed on as bounds.

Take `O=C(NC[C@H]1CCNC1)O[C@@H]1[C@@H](O)CN[C@@H]1Cc1ccc(Cl)cc1` [V188188, (2R,3S,4S)-2-[(4-chlorophenyl)methyl]-4-hydroxypyrrolidin-3-yl N-[(3S)-pyrrolidin-3-ylmethyl]carbamate]: the half-maximal inhibitory concentration (IC50) (usually the concentration needed to halve the response being measured) in the assay with CCNTB1 was less than 10 µM; with CCND1, greater than 30 µM; in the assay on MYC, greater than 30 µM; in the assay on CCNE1, less than 10 µM.
For `O=C(NCc1ccccc1)O[C@@H]1[C@@H](O)CN[C@@H]1Cc1ccc(Cl)cc1` [V188203, (2R,3S,4S)-2-[(4-chlorophenyl)methyl]-4-hydroxypyrrolidin-3-yl N-benzylcarbamate], the IC50 was less than 10 µM with CCNTB1, 10 to 20 µM in the assay on CCND1, 10 to 20 µM in the assay on MYC and less than 10 µM in the assay on CCNE1.
`COc1ccc(C[C@H]2NC[C@H](O)[C@H]2OC(=O)NCc2ccc(=O)[nH]c2)cc1` [V188206, (2R,3S,4S)-4-hydroxy-2-[(4-methoxyphenyl)methyl]pyrrolidin-3-yl N-[(6-oxo-1H-pyridin-3-yl)methyl]carbamate]: the IC50 in the assay on CCNTB1, with CCND1, in the assay on MYC and with CCNE1 was less than 10 µM in each case.
On to `COc1ccc(C[C@H]2NC[C@H](O)[C@H]2OC(=O)NCc2ccnc(N3CCCC3)c2)cc1` [V188226, (2R,3S,4S)-4-hydroxy-2-[(4-methoxyphenyl)methyl]pyrrolidin-3-yl N-{[2-(pyrrolidin-1-yl)pyridin-4-yl]methyl}carbamate], for which the IC50 in the assay with CCNTB1, in the assay on CCND1, in the assay with MYC and in the assay on CCNE1 was less than 10 µM each time.
Take `COc1ccc(C[C@H]2NC[C@H](O)[C@H]2OC(=O)NCc2cc(N3CCC3)nc(N3CCC3)c2)cc1` [V188227, (2R,3S,4S)-4-hydroxy-2-[(4-methoxyphenyl)methyl]pyrrolidin-3-yl N-{[2,6-bis(azetidin-1-yl)pyridin-4-yl]methyl}carbamate]: the 50% inhibitory concentration (IC50) is less than 10 µM with CCNTB1, 20 to 30 µM with CCND1, 20 to 30 µM in the assay on MYC and 20 to 30 µM in the assay on CCNE1.
Turning to `COc1ccc(C[C@H]2NC[C@H](O)[C@H]2OC(=O)NCc2cc(N3CCCC3)nc(N3CCCC3)c2)cc1` [V188228, (2R,3S,4S)-4-hydroxy-2-[(4-methoxyphenyl)methyl]pyrrolidin-3-yl N-{[2,6-bis(pyrrolidin-1-yl)pyridin-4-yl]methyl}carbamate], the IC50 with CCNTB1, with CCND1, in the assay with MYC and in the assay on CCNE1 was greater than 30 µM in each case.
In the case of `O=C(NCC1(F)CC1)O[C@@H]1[C@@H](O)CN[C@@H]1Cc1ccc(Cl)cc1` [V188269, (2R,3S,4S)-2-[(4-chlorophenyl)methyl]-4-hydroxypyrrolidin-3-yl N-[(1-fluorocyclopropyl)methyl]carbamate], the half-inhibitory concentration (IC50) in the assay on CCNTB1 was less than 10 µM; in the assay with CCND1, greater than 30 µM; with MYC, greater than 30 µM; in the assay with CCNE1, 10 to 20 µM.
On to `O=C(NCc1cccc(F)c1)O[C@@H]1[C@@H](O)CN[C@@H]1Cc1ccc(Cl)cc1` [V188270, (2R,3S,4S)-2-[(4-chlorophenyl)methyl]-4-hydroxypyrrolidin-3-yl N-[(3-fluorophenyl)methyl]carbamate], for which the concentration for half-maximal inhibition (IC50) in the assay with CCNTB1 was less than 10 µM; with CCND1, 10 to 20 µM; with MYC it was less than 10 µM; in the assay with CCNE1, less than 10 µM.
On to `O=C(NCc1ccc(F)cc1)O[C@@H]1[C@@H](O)CN[C@@H]1Cc1ccc(Cl)cc1` [V188271, (2R,3S,4S)-2-[(4-chlorophenyl)methyl]-4-hydroxypyrrolidin-3-yl N-[(4-fluorophenyl)methyl]carbamate], for which the IC50 in the assay on CCNTB1 is less than 10 µM; with CCND1 it was 10 to 20 µM; in the assay on MYC it was 10 to 20 µM; in the assay on CCNE1, less than 10 µM.
In the case of `O=C(NCc1cc(F)cc(F)c1)O[C@@H]1[C@@H](O)CN[C@@H]1Cc1ccc(Cl)cc1` [V188272, (2R,3S,4S)-2-[(4-chlorophenyl)methyl]-4-hydroxypyrrolidin-3-yl N-[(3,5-difluorophenyl)methyl]carbamate], the concentration for half-maximal inhibition (IC50) is less than 10 µM in the assay on CCNTB1, 20 to 30 µM in the assay with CCND1, 10 to 20 µM in the assay with MYC and less than 10 µM in the assay with CCNE1.
Consider `O=C(NCc1ccc(Cl)cc1)O[C@@H]1[C@@H](O)CN[C@@H]1Cc1ccc(Cl)cc1` [V188273, (2R,3S,4S)-2-[(4-chlorophenyl)methyl]-4-hydroxypyrrolidin-3-yl N-[(4-chlorophenyl)methyl]carbamate], for which the IC50 is 10 to 20 µM with CCNTB1, greater than 30 µM in the assay with CCND1, greater than 30 µM in the assay on MYC and 20 to 30 µM in the assay on CCNE1.
As to `O=C(NCC1CC1)O[C@@H]1[C@@H](O)CN[C@@H]1Cc1ccc(Cl)cc1` [V188275, (2R,3S,4S)-2-[(4-chlorophenyl)methyl]-4-hydroxypyrrolidin-3-yl N-(cyclopropylmethyl)carbamate], the half-maximal inhibitory concentration (IC50) in the assay on CCNTB1 was less than 10 µM; in the assay with CCND1 it was 10 to 20 µM; with MYC, less than 10 µM; with CCNE1 it was less than 10 µM.
Regarding `O=C(NCc1ccc(OC(F)(F)F)cc1)O[C@@H]1[C@@H](O)CN[C@@H]1Cc1ccc(Cl)cc1` [V188286, (2R,3S,4S)-2-[(4-chlorophenyl)methyl]-4-hydroxypyrrolidin-3-yl N-{[4-(trifluoromethoxy)phenyl]methyl}carbamate], the concentration for half-maximal inhibition (IC50) in the assay on CCNTB1, in the assay on CCND1, in the assay with MYC and with CCNE1 was greater than 30 µM throughout.
With `O=C(NC[C@@H]1CCOC1)O[C@@H]1[C@@H](O)CN[C@@H]1Cc1ccc(Cl)cc1` [V188288, (2R,3S,4S)-2-[(4-chlorophenyl)methyl]-4-hydroxypyrrolidin-3-yl N-[(3S)-oxolan-3-ylmethyl]carbamate], the IC50 with CCNTB1 is less than 10 µM; with CCND1, 20 to 30 µM; in the assay on MYC, 10 to 20 µM; in the assay on CCNE1 it was less than 10 µM.
As to `NS(=O)(=O)c1ccc(CNC(=O)O[C@@H]2[C@@H](O)CN[C@@H]2Cc2ccc(Cl)cc2)cc1` [V188291, (2R,3S,4S)-2-[(4-chlorophenyl)methyl]-4-hydroxypyrrolidin-3-yl N-[(4-sulfamoylphenyl)methyl]carbamate], the concentration for half-maximal inhibition (IC50) is less than 10 µM in the assay with CCNTB1, less than 10 µM in the assay with CCND1, 10 to 20 µM with MYC and less than 10 µM with CCNE1.
With `COc1ccc(C[C@H]2NC[C@H](O)[C@H]2OC(=O)NCc2ccc(S(N)(=O)=O)cc2)cc1` [V188304, (2R,3S,4S)-4-hydroxy-2-[(4-methoxyphenyl)methyl]pyrrolidin-3-yl N-[(4-sulfamoylphenyl)methyl]carbamate], the half-inhibitory concentration (IC50) in the assay with CCNTB1, in the assay with CCND1, in the assay with MYC and with CCNE1 was less than 10 µM in each case.
For the compound `CNC(=O)c1ccc(CNC(=O)O[C@@H]2[C@@H](O)CN[C@@H]2Cc2ccc(OC)cc2)cc1` [V188305, (2R,3S,4S)-4-hydroxy-2-[(4-methoxyphenyl)methyl]pyrrolidin-3-yl N-{[4-(methylcarbamoyl)phenyl]methyl}carbamate], the IC50 with CCNTB1, in the assay with CCND1, with MYC and in the assay on CCNE1 was less than 10 µM each time.
